Source: ChEMBL document CHEMBL5113484, “Synthesis and biological evaluation of novel pentanediamide derivatives as S-adenosyl-l-homocysteine hydrolase inhibitors” (Bioorg Med Chem Lett, 2022)

Assays:
MCF7 = assay: Cytotoxicity against human MCF7 cells assessed as cell growth inhibition; assay type: functional, cell-based
A549 = assay: Cytotoxicity against human A549 cells assessed as cell growth inhibition; assay type: functional, cell-based
HeLa = assay: Cytotoxicity against human HeLa cells assessed as cell growth inhibition; assay type: functional, cell-based
MGC-803 = assay: Cytotoxicity against human MGC-803 cells assessed as cell growth inhibition; assay type: functional, cell-based
L02 = assay: Cytotoxicity against human L02 cells assessed as cell growth inhibition; assay type: functional, cell-based
Adenosylhomocysteinase = Adenosylhomocysteinase (Homo sapiens, UniProt P23526); assay: Inhibition of SAH hydrolase (unknown origin)
Adenosylhomocysteinase, sequence (P23526 whole entry): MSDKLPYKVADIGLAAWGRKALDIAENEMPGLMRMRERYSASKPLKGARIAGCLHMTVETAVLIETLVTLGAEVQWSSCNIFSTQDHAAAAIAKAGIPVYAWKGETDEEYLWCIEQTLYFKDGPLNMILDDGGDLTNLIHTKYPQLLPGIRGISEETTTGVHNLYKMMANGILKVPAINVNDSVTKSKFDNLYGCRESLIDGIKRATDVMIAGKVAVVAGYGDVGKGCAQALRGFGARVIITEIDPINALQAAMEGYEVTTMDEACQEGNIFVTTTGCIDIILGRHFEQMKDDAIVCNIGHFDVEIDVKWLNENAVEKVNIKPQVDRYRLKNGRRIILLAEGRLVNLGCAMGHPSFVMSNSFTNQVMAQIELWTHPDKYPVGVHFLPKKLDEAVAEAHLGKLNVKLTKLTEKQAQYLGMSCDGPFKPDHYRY

[1] = Cytotoxicity against African green monkey Vero cells assessed as cell growth inhibition; assay type: toxicity, cell-based; settings: chlorocebus sabaeus
[2] = system: Vesicular stomatitis virus; assay: Antiviral activity against Vesicular stomatitis virus assessed as viral growth inhibition; assay type: functional, organism-based
[3] = system: Respiratory syncytial virus; assay: Antiviral activity against Respiratory syncytial virus assessed as viral growth inhibition; assay type: functional, organism-based; settings: human respiratory syncytial virus
[4] = Selectivity index, ratio of CC50 for cytotoxicity against African green monkey Vero cells to EC50 for antiviral activity against Vesicular stomatitis virus; assay type: toxicity, cell-based; settings: read-out: Ratio CC50/EC50
[5] = Selectivity index, ratio of CC50 for cytotoxicity against African green monkey Vero cells to EC50 for antiviral activity against Respiratory syncytial virus; assay type: toxicity, cell-based; settings: read-out: Ratio CC50/EC50

| Structure (SMILES) | IC50 (MCF7) [µM] | IC50 (A549) [µM] | IC50 (HeLa) [µM] | IC50 (MGC-803) [µM] | IC50 (L02) [µM] | IC50 (Adenosylhomocysteinase) [µM] | CC50 [1] [µM] | EC50 [2] [µM] | EC50 [3] [µM] | selectivity ratio [4] | selectivity ratio [5] |
| --- | --- | --- | --- | --- | --- | --- | --- | --- | --- | --- | --- |
| CCNCCNC(=O)CC(CC(=O)NC1Cc2ccccc2C1)c1ccc(Cl)cc1 (stereo not given) | > 100 | 52 | 68.4 | > 100 | 83.7 | – | – | – | – | – | – |
| CCNCCNC(=O)CC(CC(=O)N(CC)C1Cc2ccccc2C1)c1ccc(Cl)cc1 (stereo not given) | 14.4 | 19.4 | 40.5 | 43.8 | 66.2 | 3.78 | 144 | > 100 | > 100 | – | – |
| Cc1ccc(C(CC(=O)NCCN2CCCCC2)CC(=O)NC2Cc3ccccc3C2)cc1 (stereo not given) | > 100 | > 100 | > 100 | > 100 | > 100 | – | – | – | – | – | – |
| O=C(CC(CC(=O)NC1Cc2ccccc2C1)c1ccccc1)NCCN1CCCC1 (stereo not given) | > 100 | > 100 | > 100 | > 100 | > 100 | – | – | – | – | – | – |
| CCN(CC)CCNC(=O)CC(CC(=O)N(CC)C1Cc2ccccc2C1)c1ccc(Cl)cc1 (stereo not given) | 23 | 18.4 | 24.3 | 44.9 | 78.4 | 3.72 | 91.8 | 38.9 | 91.1 | 2.36 | 1.01 |
| CCN(CC)CCNC(=O)CC(CC(=O)N(C)C1Cc2ccccc2C1)c1ccccc1 (stereo not given) | > 100 | > 100 | > 100 | > 100 | > 100 | – | – | – | – | – | – |
| O=C(CC(CC(=O)NC1Cc2ccccc2C1)c1ccccc1)NCCN1CCCCC1 (stereo not given) | > 100 | > 100 | > 100 | > 100 | > 100 | – | – | – | – | – | – |
| CCNCCNC(=O)CC(CC(=O)N(CC)C1Cc2ccccc2C1)c1ccccc1 (stereo not given) | > 100 | > 100 | > 100 | > 100 | > 100 | 3.48 | – | – | – | – | – |
| CCNCCNC(=O)CC(CC(=O)NC1Cc2ccccc2C1)c1ccccc1 (stereo not given) | > 100 | > 100 | > 100 | > 100 | > 100 | – | – | – | – | – | – |
| CN(C(=O)CC(CC(=O)NCCN1CCCC1)c1ccccc1)C1Cc2ccccc2C1 (stereo not given) | > 100 | > 100 | > 100 | > 100 | > 100 | – | – | – | – | – | – |
| CCN(CC)CCNC(=O)CC(CC(=O)NC1Cc2ccccc2C1)c1ccccc1 (stereo not given) | > 100 | 82.4 | > 100 | > 100 | > 100 | – | – | – | – | – | – |
| CCN(CC)CCNC(=O)CC(CC(=O)N(C)C1Cc2ccccc2C1)c1ccc(Cl)cc1 (stereo not given) | 28.8 | 21.4 | 48.1 | 81.2 | 56.5 | – | – | – | – | – | – |
| CCN(C(=O)CC(CC(=O)NCCN1CCCCC1)c1ccc(Cl)cc1)C1Cc2ccccc2C1 (stereo not given) | 16.5 | 13.2 | 20.4 | 21.2 | 84.2 | 3.58 | 187 | > 100 | 27.4 | – | 6.84 |
| CCN(C(=O)CC(CC(=O)NCCN1CCCC1)c1ccc(Cl)cc1)C1Cc2ccccc2C1 (stereo not given) | 20.4 | 22.6 | 36.4 | 55.5 | 54.2 | – | – | – | – | – | – |
| CCN(CC)CCNC(=O)CC(CC(=O)NC1Cc2ccccc2C1)c1ccc(Cl)cc1 (stereo not given) | 75 | 48.6 | 50.5 | > 100 | 76.7 | 3.68 | – | – | – | – | – |
| O=c1[nH]cc(F)c(=O)[nH]1 [FLUOROURACIL] | 48.5 | – | – | 38.5 | 46.5 | – | – | – | – | – | – |
| O=C(CC(CC(=O)NC1Cc2ccccc2C1)c1ccc(Cl)cc1)NCCN1CCCC1 (stereo not given) | > 100 | 50.9 | 77.3 | > 100 | 89.4 | – | – | – | – | – | – |
| Nc1nccc2c1ncn2[C@@H]1O[C@H](CO)[C@@H](O)[C@H]1O | 40.3 | 57.4 | – | 41.1 | 94.4 | 5.39 | – | – | – | – | – |
| CCN(C(=O)CC(CC(=O)NCCN1CCCC1)c1ccccc1)C1Cc2ccccc2C1 (stereo not given) | > 100 | > 100 | > 100 | > 100 | > 100 | – | – | – | – | – | – |
| CCN(C(=O)CC(CC(=O)NCCN1CCCCC1)c1ccccc1)C1Cc2ccccc2C1 (stereo not given) | > 100 | 84.5 | > 100 | > 100 | > 100 | – | – | – | – | – | – |
| CNCCNC(=O)CC(CC(=O)NC1Cc2ccccc2C1)c1ccc(Cl)cc1 (stereo not given) | > 100 | > 100 | > 100 | > 100 | > 100 | – | – | – | – | – | – |
| CN(C(=O)CC(CC(=O)NCCN1CCCC1)c1ccc(Cl)cc1)C1Cc2ccccc2C1 (stereo not given) | 76.7 | 56 | 55.4 | 83.8 | 81.5 | – | – | – | – | – | – |
| O=C(CC(CC(=O)NC1Cc2ccccc2C1)c1ccc(Cl)cc1)NCCN1CCCCC1 (stereo not given) | 35.5 | 28 | 86.2 | 89.1 | 70.4 | – | – | – | – | – | – |
